Source: US5324708A, “Non-hygroscopic monoammonium salts of phosphonic and phosphinic acids” (Aklaloida Vegyeszeti Gyar Rt., priority 1991, dated 1994)
Counter-ions that a name gives are not always drawn. Like-named read-outs stand apart in the source and are kept apart here.

Columns and labels:
[1] = Water solubility of products (in words); assay type: physicochemical
[2] = Hygroscopicity of products (in words); assay type: physicochemical; conditions: product of the example
Procedure: "Non-hygroscopic" according to our invention means, that when exposed at 25° C. to an environment containing 60% humidity no observable uptake of water takes place within 3 weeks or this uptake is less than 0.1%. The salts are crystalline, they have melting point ranges that are different from those published before and their water-solubility is somewhat increased as compared with the salts prepared with the known methods.

[3] = Uptake of humidity in open containers at 60% humidity and 25° C. (Table VI); assay type: physicochemical; conditions: 60% humidity
Procedure: The samples were investigated in open containers, at 60% humidity and 25° C.

[4] = Solubility tests, N-(phosphonomethyl)-glycine and its salts (Table IV); assay type: physicochemical
Description: Table IV illustrates some solubility values of the mono-isopropylammonium salts and di-isopropylammonium salts of N-(phosphonomethyl)-glycine on the basis of which the processes according to our invention can be reduced to practice. All solvents or solvent-mixtures can be used for our processes which show a reasonable solubility--difference between the salts and products that have to be separated.

[5] = according to prior publications; cited from earlier work

O=C(O)CNCP(=O)(O)O [Example I.1, mono-isopropylammonium salt of N-(phosphonomethyl)-glycine]
solubility in water (in words) [1]: readily soluble
hygroscopicity (in words) [2]: not hygroscopic

O=C(O)CNCP(=O)(O)O [Example I.2, mono-isopropylammonium salt of N-(phosphonomethyl)-glycine]
solubility in water (in words) [1]: readily soluble
hygroscopicity (in words) [2]: not hygroscopic

O=C(O)CNCP(=O)(O)O [Example I.12, mono-isopropylammmonium salt of N-(phosphonomethyl)-glycine]
solubility in water (in words) [1]: readily soluble
hygroscopicity (in words) [2]: non-hygroscopic

O=C(O)CNCP(=O)(O)O [Example I.15, mono-isopropylammonium salt of N-(phosphonomethyl)-glycine]
solubility in water (in words) [1]: readily soluble
hygroscopicity (in words) [2]: non-hygroscopic

O=C(O)CNCP(=O)(O)O [Example I.18, mono-(dimethyl-ammonium)-salt of N-(phosphonomethyl)-glycine]
solubility in water (in words) [1]: readily soluble
hygroscopicity (in words) [2]: non-hygroscopic

O=C(O)CNCP(=O)(O)O [Example I.20, mono-isopropylammonium salt of N-(phosphonomethyl)-glycine]
solubility in water (in words) [1]: readily soluble
hygroscopicity (in words) [2]: non-hygroscopic

O=C(O)CNCP(=O)(O)O [Example I.24, mono-isopropylammonium salt of N-(phosphonomethyl)-glycine]
solubility in water (in words) [1]: readily soluble
hygroscopicity (in words) [2]: non-hygroscopic

O=C(O)CNCP(=O)(O)O [I.7, mono-isopropylammonium salt of N-(phosphonomethyl)-glycine]
hygroscopicity (in words) [2]: non-hygroscopic

O=C(O)CNCP(=O)(O)O [I.8, mono-isopropylammoniumsalt of N-(phosphonomethyl)-glycine]
solubility in water (in words) [1]: readily soluble
hygroscopicity (in words) [2]: non-hygroscopic

CP(=O)(O)CCC(N)C(=O)O (stereo not shown) [I.9, mono-isopropylammoniumsalt of (3-amino-3-carboxy-propyl)-methane-phosphinic acid]
hygroscopicity (in words) [2]: non-hygroscopic

CP(=O)(O)CCC(N)C(=O)O (stereo not shown) [I.10, mono-isopropylammoniumsalt of (3-amino-3-carboxy-propyl)-methane-phosphinic acid]
hygroscopicity (in words) [2]: non-hygroscopic

O=C(O)CNCP(=O)(O)O [I.13, mono-isopropylammmonium salt of N-(phosphonomethyl)-glycine]
solubility in water (in words) [1]: readily soluble
hygroscopicity (in words) [2]: non-hygroscopic

O=C(O)CNCP(=O)(O)O [I.14, mono-isopropylammonium salt of N-(phosphonomethyl)-glycine]
solubility in water (in words) [1]: readily soluble
hygroscopicity (in words) [2]: non-hygroscopic

O=C(O)CNCP(=O)(O)O [I.16, mono-isopropylammonium salt of N-(phosphonomethyl)-glycine]
solubility in water (in words) [1]: readily soluble
hygroscopicity (in words) [2]: non-hygroscopic

O=C(O)CNCP(=O)(O)O [I.17, mono-isopropylammonium salt of N-(phosphonomethyl)-glycine]
solubility in water (in words) [1]: readily soluble
hygroscopicity (in words) [2]: non-hygroscopic

O=C(O)CNCP(=O)(O)O [I.19, mono-ethylammonium salt of N-(phosphonomethyl)-glycine]
solubility in water (in words) [1]: readily soluble
hygroscopicity (in words) [2]: non-hygroscopic

O=C(O)CNCP(=O)(O)O [I.21, mono-isopropylammonium salt of N-(phosphonomethyl)-glycine]
solubility in water (in words) [1]: readily soluble
hygroscopicity (in words) [2]: non-hygroscopic

O=C(O)CNCP(=O)(O)O [I.22, mono-isopropylammonium salt of N-(phosphonomethyl)-glycine]
solubility in water (in words) [1]: readily soluble
hygroscopicity (in words) [2]: non-hygroscopic

O=C(O)CNCP(=O)(O)O [I.23, mono-isoptopylammonium salt of N-(phosphonomethyl)-glycine]
solubility in water (in words) [1]: readily soluble
hygroscopicity (in words) [2]: non-hygroscopic

O=C(O)CNCP(=O)(O)O [I.25, mono-isopropylammonium salt of N-(phosphonomethyl)-glycine]
solubility in water (in words) [1]: readily soluble
hygroscopicity (in words) [2]: non-hygroscopic

O=C(O)CNCP(=O)(O)O [I.26, mono-isopropylammonium salt of N-(phosphonomethyl)-glycine]
solubility in water (in words) [1]: readily soluble
hygroscopicity (in words) [2]: non-hygroscopic

O=C(O)CNCP(=O)(O)O [di-IPA salt, di-(mono-isopropylamine)-salt of N-(phosphonomethyl)-glycine]
solubility in water (in words) [1]: readily soluble
Uptake of humidity ([3]; 1 day, listed as di-isopropyl-ammonium salt of N-(phosphonomethyl)-glycine): 13.0%
Uptake of humidity ([3]; 2 days, listed as di-isopropyl-ammonium salt of N-(phosphonomethyl)-glycine): 14.5%
Uptake of humidity ([3]; 7 days, listed as di-isopropyl-ammonium salt of N-(phosphonomethyl)-glycine): 16.1%
Uptake of humidity ([3]; 14 days, listed as di-isopropyl-ammonium salt of N-(phosphonomethyl)-glycine): 18.8%
Uptake of humidity ([3]; 30 days, listed as di-isopropyl-ammonium salt of N-(phosphonomethyl)-glycine): 19.2%
Uptake of humidity ([3]; 90 days, listed as di-isopropyl-ammonium salt of N-(phosphonomethyl)-glycine): 30.9%
Appearance ([3]; within 1 day): sticky and hygroscopic
Appearance ([3]; within 4 days): completely liquid
SOLUBILITY ([4]; benzene): < 0.1 g/L
SOLUBILITY ([4]; benzyl-alcohol): 420 g/L
SOLUBILITY ([4]; dimethyl-formamide): 22 g/L
SOLUBILITY ([4]; isopropyl amine): < 0.1 g/L
SOLUBILITY ([4]; methanol): 570 g/L
SOLUBILITY ([4]; n-butanol): 35 g/L
SOLUBILITY ([4]; n-propanol): 170 g/L
SOLUBILITY ([4]; propylene-glycol): 244 g/L

O=C(O)CNCP(=O)(O)O [glyphosate, N-(phosphonomethyl)-glycine]
SOLUBILITY ([4]; benzene): < 0.1 g/L
SOLUBILITY ([4]; benzyl-alcohol): < 0.2 g/L
SOLUBILITY ([4]; dimethyl-formamide): < 0.2 g/L
SOLUBILITY ([4]; ethanol): 0.2 g/L
SOLUBILITY ([4]; isopropanol): < 0.5 g/L
SOLUBILITY ([4]; methanol): < 0.3 g/L
SOLUBILITY ([4]; n-propanol): < 0.5 g/L
SOLUBILITY ([4]; water): 12 g/L

O=C(O)CNCP(=O)(O)O [mono-IPA salt, mono-isopropylammonium salt of N-(phosphonomethyl)-glycine]
Uptake of humidity ([3]; 1 day): 0.1%
Uptake of humidity ([3]; 2 days): 0.1%
Uptake of humidity ([3]; 7 days): 0.1%
Uptake of humidity ([3]; 14 days): 0.1%
Uptake of humidity ([3]; 30 days): 0.1%
Uptake of humidity ([3]; 90 days): 0.1%
Appearance ([3]; after 30 days): unchanged
SOLUBILITY ([4]; benzene): < 0.1 g/L
SOLUBILITY ([4]; benzyl-alcohol): 0.5 g/L
SOLUBILITY ([4]; dimethyl-formamide): 1.8 g/L
SOLUBILITY ([4]; isopropyl amine): < 0.1 g/L
SOLUBILITY ([4]; methanol): 56 g/L
SOLUBILITY ([4]; n-butanol): 0.1 g/L
SOLUBILITY ([4]; n-propanol): 0.7 g/L
SOLUBILITY ([4]; propylene-glycol): 184.0 g/L
SOLUBILITY ([4]; water): 1470 g/L
hygroscopicity (in words) [5]: extreme hygroscopic nature

CP(=O)(O)CCC(N)C(=O)O (stereo not shown) [mono-ammonium salt, (3-amino-3-carboxy-propyl)-methane-phosphinic acid ammonium salt]
hygroscopicity (in words) [5]: hygroscopic
